Patent US11608332B2, “FGFR4 inhibitor and preparation method and use thereof” (Jiangsu Hansoh Pharmaceutical Group Co., Ltd., priority 2016, dated 2023)

What was measured:
[1] = biological target: FGFR1 kinase (Homo sapiens (Human), UniProt P11362); assay: Enzymologic experiment of FGFR1 (TR-FRET); format: biochemical; conditions: TR-FRET kinase activity
Method: 2. Enzymologic Experiment of FGFR1
In this experiment, the inhibitory effect of the compounds on FGFR1 kinase activity was tested by a fluorescence resonance energy transfer (TR-FRET) method, and the half maximal inhibitory concentration (IC50) of the compounds on the FGFR1 kinase activity was determined.
1) 1˜5 μL of FGFR1 enzymatic solution was added to a 384-well plate, and the final concentration of the enzyme was 0.1˜5 nM.
2) 1˜5 μL of diluted solution in gradient of the compound was added.
3) 1˜5 μL of a substrate mixture containing substrate polypeptide with a final concentration of 5˜50 nM and ATP with a final concentration of 10˜200 μM was added.
4) The mixture was incubated for 0.5-3 hours at room temperature.
5) 10 μL of EDTA and a test solution comprising labeled antibody were added, and the plate was incubated for 1 hour at room temperature.
6) The fluorescence signal values of each plate were determined by a microplate reader at 665 nm.
7) The inhibition rates were calculated according to the fluorescence signal values.
The IC50 of the compound was obtained by curve fitting according to the inhibition rates at different concentrations, and the enzymatic activity of the specific example compounds is shown in Table 1.

[2] = system: Hep 3B cells; assay: Inhibition of Hep 3B cell proliferation (CellTiter-Glo); format: cell-based; conditions: Homo sapiens, Hep3B, 72 hours
Method: 3. Experiment on the Inhibition of Hep 3B Cell Proliferation
In this experiment, the inhibitory effect of the compounds on Hep 3B cell proliferation was tested by a CellTiter-Glo method, and the half maximal inhibitory concentration (IC50) of the compounds on the activity of cell proliferation was determined.
1) A 96-well cell culture plate was seeded with 50˜100 μL of Hep 3B cell suspension at a density of 1-5×10^4 cells/ml. The culture plate was incubated in an incubator for 16-24 hours (37° C., 5% CO2).
(§1) 2) Different concentrations of the test compound in a gradient dilution were added to the cells in the culture plate. The culture plate was incubated in an incubator for 72 hours (37° C., 5% CO2).
3) 50-100 μL of CellTiter-Glo reagent were added to each well. Then, the culture plate was shaken or left to stand for 5˜30 minutes at room temperature.
(§2) 4) The chemiluminescence signal values of each plate were determined by a microplate reader.
(§3) 5) The inhibition rates were calculated according to the chemiluminescence signal values.
6) The IC50 of the compound was obtained by curve fitting according to the inhibition rates at different concentrations, and the cell activity of the specific example compounds is shown in Table 2.

[3] = system: HuH-7 cells; assay: Inhibition of HuH-7 cell proliferation (CellTiter-Glo); format: cell-based; conditions: Homo sapiens, 72 hours
Method: 4. Experiment on the Inhibition of HuH-7 Cell Proliferation
In this experiment, the inhibitory effect of the compounds on HuH-7 cell proliferation was tested by a CellTiter-Glo method, and the half maximal inhibitory concentration (IC50) of the compounds on the activity of cell proliferation was determined.
1) A 96-well cell culture plate was seeded with 50˜100 μL of HuH-7 cell suspension at a density of 1-5×10^4 cells/ml. The culture plate was incubated in an incubator for 16˜24 hours (37° C., 5% CO2).
as §1
(§4) 3) 50˜100 μL of CellTiter-Glo reagent were added to each well. Then, the culture plate was shaken or left to stand for 5˜30 minutes at room temperature.
as §2, §3
6) The IC50 of the compound was obtained by curve fitting according to the inhibition rates at different concentrations, and the cell activity of the specific Example compounds is shown in Table 2.

[4] = system: SK-HEP-1 cells; assay: Inhibition of SK-HEP-1 cell proliferation (CellTiter-Glo); format: cell-based; conditions: Homo sapiens, SK-HEP1, 72 hours
Method: 5. Experiment on the Inhibition of SK-HEP-1 Cell Proliferation
In this experiment, the inhibitory effect of the compounds on SK-HEP-1 cell proliferation was tested by a CellTiter-Glo method, and the half maximal inhibitory concentration (IC50) of the compounds on the activity of cell proliferation was determined.
1) A 96-well cell culture plate was seeded with 50˜100 μL of SK-HEP-1 cell suspension at a density of 1-5×10^4 cells/ml. The culture plate was incubated in an incubator for 16˜24 hours (37° C., 5% CO2).
as §1, §4, §2, §3
The IC50 of the compound was obtained by curve fitting according to the inhibition rates at different concentrations, and the cell activity of the specific Example compounds is shown in Table 2.

[5] = Pharmacokinetic (PK) analysis in rats; format: in vivo, Sprague Dawley (SD) rats; conditions: SD rats, single intragastric administration, 5 mg/kg, plasma; for AUC(0-t) / AUC(0-inf) / half-life / Cmax / MRT: Sprague-Dawley, rat, po; for AUC(0-t): read-out: Area Under Curve AUC0-t; for AUC(0-inf): read-out: Area Under Curve AUC0-∞; for half-life: read-out: Half-Time t1/2 (converted); for Cmax: read-out: Plasma Concentration Cmax; for MRT: read-out: Mean Residence Time MRT
Method: 6. Pharmacokinetic (PK) Analysis in Rats
Mode of administration: a single intragastric administration.
Formulation: 0.5% CMC and 1% Tween 80, ultrasonic dissolution.
Sampling points: 0.5, 1, 2, 4, 6, 8 and 24 hours after administration.
1. 1.0 ml of intravenous blood was collected and placed in a K2EDTA test tube.
The blood was centrifuged at room temperature at the speed of 1000˜3000×g for 5˜20 minutes to isolate the plasma, which was then stored at −80° C. 2. 160 μL of acetonitrile were added to 40 μL of plasma sample for precipitation, and then the mixture was centrifuged at the speed of 500˜2000×g for 5˜20 minutes. 3. 100 μL of treated solution were taken, and the concentration of the test compound was analyzed by LC/MS/MS. The LC/MS/MS analytical instrument was AB Sciex API 4000.
Liquid Chromatography Analysis:
Condition of Liquid chromatography: Shimadzu LC-20AD pump
Chromatographic column: phenomenex Gemiu 5 um C18 50×4.6 mm
Mobile phase: Solution A is 0.1% aqueous formic acid solution, and solution B is acetonitrile
Elution time: 0-3.5 minutes, the eluent was as follows:
Mass spectrometry analysis:
Mass spectrometer setup conditions: positive ion electrospray ionization (ESI) mode.

FGFR1 kinase, sequence (P11362 22-822): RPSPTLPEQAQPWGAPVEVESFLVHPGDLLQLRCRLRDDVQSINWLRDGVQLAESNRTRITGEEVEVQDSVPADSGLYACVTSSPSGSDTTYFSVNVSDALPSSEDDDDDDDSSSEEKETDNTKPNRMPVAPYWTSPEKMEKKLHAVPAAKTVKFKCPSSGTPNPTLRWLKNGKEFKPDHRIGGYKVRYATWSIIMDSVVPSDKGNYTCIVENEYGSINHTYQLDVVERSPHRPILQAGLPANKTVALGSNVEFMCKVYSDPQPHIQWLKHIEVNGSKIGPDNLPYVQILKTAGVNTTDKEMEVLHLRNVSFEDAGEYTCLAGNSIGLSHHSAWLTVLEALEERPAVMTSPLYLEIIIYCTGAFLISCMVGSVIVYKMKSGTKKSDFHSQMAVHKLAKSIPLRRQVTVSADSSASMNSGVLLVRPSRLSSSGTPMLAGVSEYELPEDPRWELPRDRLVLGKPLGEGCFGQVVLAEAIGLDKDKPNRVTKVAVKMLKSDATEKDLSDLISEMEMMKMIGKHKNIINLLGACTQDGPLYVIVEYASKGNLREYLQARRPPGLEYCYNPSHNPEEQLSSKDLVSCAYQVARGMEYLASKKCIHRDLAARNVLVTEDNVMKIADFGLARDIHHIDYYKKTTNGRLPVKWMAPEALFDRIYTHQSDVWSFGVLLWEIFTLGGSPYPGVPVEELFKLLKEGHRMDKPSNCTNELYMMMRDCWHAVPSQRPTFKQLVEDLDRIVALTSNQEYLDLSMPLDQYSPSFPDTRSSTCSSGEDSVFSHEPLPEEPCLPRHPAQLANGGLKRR

Compound	IC50 [1] [nM]	IC50 [2] [nM]	IC50 [3] [nM]	IC50 [4] [nM]	Peak Time tmax [5] [h]	AUC(0-t) [5] [ng·h/mL]	AUC(0-inf) [5] [ng·h/mL]	half-life [5] [h]	Cmax [5] [ng/mL]	MRT [5] [h]
COCCNc1cc(NC(=O)N2CCCc3cc(CN4CC[C@H](OC)C4=O)c(C=O)nc32)ncc1C#N [Example 46, (S)—N-(5-Cyano-4-((2-methoxyethyl)amino)pyridin-2-yl)-7-formyl-6-((3-methoxy-2-carbonylpyrrolidin-1-yl)methyl)-3,4-dihydro-1,8-naphthyridin-1(2H)-carboxamide]	> 10000	2.3	9	> 10000	2	10700	11300	1	3290	–
CO[C@H]1CCN(Cc2cc3c(nc2C=O)N(C(=O)Nc2cc(N[C@@H]4CCOC4)c(C#N)cn2)CCC3)C1=O [Example 85, N-(5-Cyano-4-(((R)-tetrahydrofuran-3-yl)amino)pyridin-2-yl)-7-formyl-6-(((S)-3-methoxy-2-carbonylpyrrolidin-1-yl)methyl)-3,4-dihydro-1,8-naphthyridin-1(2H)-carboxamide]	> 10000	2.6	4.6	> 10000	2	7280	7370	0.9	2120	3.3
COC[C@@H](C)Nc1cc(NC(=O)N2CCCc3cc(CN4CC[C@H](OC)C4=O)c(C=O)nc32)ncc1C#N [Example 89, N-(5-Cyano-4-(((R)-1-methoxypropan-2-yl)amino)pyridin-2-yl)-7-formyl-6-(((S)-3-methoxy-2-carbonylpyrrolidin-1-yl)methyl)-3,4-dihydro-1,8-naphthyridin-1(2H)-carboxamide]	> 10000	1.9	2.3	> 10000	2	3100	3130	1	1990	2.5
COCCNc1cc(NC(=O)N2CCCc3cc(CN(C)C(=O)C4CCOCC4)c(C=O)nc32)ncc1C#N [Example 98, N-(5-Cyano-4-((2-methoxyethyl)amino)pyridin-2-yl)-7-formyl-6-((N-methyltetrahydro-2H-pyran-4-carboxamido)methyl)-3,4-dihydro-1,8-naphthyridin-1(2H)-carboxamide]	> 10000	2.7	11.2	> 10000	2	6700	6840	0.9	2690	3.1
COC[C@@H](C)Nc1cc(NC(=O)N2CCCc3cc(CN(C)C(=O)[C@H]4CCCO4)c(C=O)nc32)ncc1C#N [Example 93, N-(5-Cyano-4-(((R)-1-methoxypropan-2-yl)amino)pyridin-2-yl)-7-formyl-6-(((R)—N-methyltetrahydrofuran-2-carboxamido)methyl)-3,4-dihydro-1,8-naphthyridin-1(2H)-carboxamide]	> 10000	3.7	5	> 10000	2	9420	9480	0.9	2860	2.5
COCCNc1cc(NC(=O)N2CCCc3cc(CN(C)C(=O)C4CCOC4)c(C=O)nc32)ncc1C#N (centres unmarked) [Example 5, N-(5-Cyano-4-((2-methoxyethyl)amino)pyridin-2-yl)-7-formyl-6-((N-methyltetrahydrofuran-3-carboxamido)methyl)-3,4-dihydro-1,8-naphthyridin-1(2H)-carboxamide]	> 10000	9.1	31.7	> 10000	2	13000	13400	1.2	3570	3.2
CN(Cc1cc2c(nc1C=O)N(C(=O)Nc1cc(N[C@H]3CCOC3)c(C#N)cn1)CCC2)C(=O)[C@H]1CCCO1 [Example 94, N-(5-Cyano-4-(((S)-tetrahydrofuran-3-yl)amino)pyridin-2-yl)-7-formyl-6-(((R)—N-methyltetrahydrofuran-2-carboxamido)methyl)-3,4-dihydro-1,8-naphthyridin-1 (2H)-carboxamide]	> 10000	3.9	13.8	> 10000	2	13000	12400	0.8	3750	2.8
COCCNc1cc(NC(=O)N2CCCc3cc(CN(C)C(=O)[C@H]4CCCO4)c(C=O)nc32)ncc1C#N [Example 1, (R)—N-(5-Cyano-4-((2-methoxyethyl)amino)pyridin-2-yl)-7-formyl-6-((N-methyltetrahydrofuran-2-carboxamido)methyl)-3,4-dihydro-1,8-naphthyridin-1(2H)-carb oxamide]	> 10000	7.3	11	> 10000	2	6800	6930	1.1	2070	3.1
CO[C@@H]1CCN(c2cc(NC(=O)N3CCCc4cc(CN5CC[C@H](OC)C5=O)c(C=O)nc43)ncc2C#N)C1 [Example 54, N-(5-Cyano-4-((R)-3-methoxypyrrolidin-1-yl)pyridin-2-yl)-7-formyl-6-(((S)-3-methoxy-2-carbonylpyrrolidin-1-yl)methyl)-3,4-dihydro-1,8-naphthyridin-1(2H)-carboxamide]	> 10000	4.4	11.3	> 10000	2	7130	7870	1	2870	2.7
